ChEMBL document CHEMBL5584214, “Design of MERS-CoV entry inhibitory short peptides based on helix-stabilizing strategies” (Bioorg Med Chem Lett, 2024)
Non-standard residues stand in square brackets, D forms with d. Residues, ends and D or L forms follow the SMILES beside them. *: point of attachment. PEG24 = NCCOCCOCCOCCOCCOCCOCCOCCOCCOCCOCCOCCOCCOCCOCCOCCOCCOCCOCCOCCOCCOCCOCCOCCOCCC(=O)O; PEG12 = NCCOCCOCCOCCOCCOCCOCCOCCOCCOCCOCCOCCOCCC(=O)O; Palmitoyl = CCCCCCCCCCCCCCCC(=O)*; Octanoyl = CCCCCCCC(=O)*; AEEA = NCCOCCOCC(=O)O; Aib = CC(C)(N)C(=O)O

assay: Inhibition of MERS-CoV Spike glycoprotein mediated cell-cell fusion; design: species or system Middle East respiratory syndrome-related coronavirus

Compound	EC50 [µM]
CCCCCCCCCCCCCCCC(=O)NCCCC[C@H](NC(=O)CCOCCOCCOCCOCCOCCOCCOCCOCCOCCOCCOCCOCCOCCOCCOCCOCCOCCOCCOCCOCCOCCOCCOCCOCCNC(=O)[C@H](Cc1ccc(O)cc1)NC(=O)[C@H](CO)NC(=O)[C@H](CCC(=O)O)NC(=O)[C@H](CC(N)=O)NC(=O)[C@H](CC(C)C)NC(=O)[C@H](CCCCN)NC(=O)[C@H](CCCCN)NC(=O)[C@@H](NC(=O)[C@@H](NC(=O)[C@H](CCC(=O)O)NC(=O)[C@H](CCC(N)=O)NC(=O)[C@H](CC(C)C)NC(=O)[C@H](CO)NC(=O)[C@H](CC(C)C)NC(=O)[C@H](CCSC)NC(=O)C(C)(C)NC(=O)[C@H](Cc1ccc(O)cc1)NC(=O)[C@@H](NC(=O)[C@H](CC(C)C)NC(=O)C(C)(C)NC(=O)[C@H](CC(C)C)NC(C)=O)[C@@H](C)O)C(C)C)C(C)C)C(N)=O (Ac-L[Aib]LTY[Aib]MLSLQEVVKKLNESY[PEG24]K(Palmitoyl)-NH2)	> 50
CCCCCCCCCCCCCCCC(=O)NCCCC[C@H](NC(=O)CCOCCOCCOCCOCCOCCOCCOCCOCCOCCOCCOCCOCCNC(=O)[C@H](Cc1ccc(O)cc1)NC(=O)[C@H](CO)NC(=O)[C@H](CCC(=O)O)NC(=O)[C@H](CC(N)=O)NC(=O)[C@H](CC(C)C)NC(=O)[C@H](CCCCN)NC(=O)[C@H](CCCCN)NC(=O)[C@@H](NC(=O)[C@@H](NC(=O)[C@H](CCC(=O)O)NC(=O)[C@H](CCC(N)=O)NC(=O)[C@H](CC(C)C)NC(=O)[C@H](CO)NC(=O)[C@H](CC(C)C)NC(=O)[C@H](CCSC)NC(=O)C(C)(C)NC(=O)[C@H](Cc1ccc(O)cc1)NC(=O)[C@@H](NC(=O)[C@H](CC(C)C)NC(=O)C(C)(C)NC(=O)[C@H](CC(C)C)NC(C)=O)[C@@H](C)O)C(C)C)C(C)C)C(N)=O (Ac-L[Aib]LTY[Aib]MLSLQEVVKKLNESY[PEG12]K(Palmitoyl)-NH2)	1.42
CSCC[C@H](NC(=O)C(C)(C)NC(=O)[C@H](Cc1ccc(O)cc1)NC(=O)[C@@H](NC(=O)[C@H](CC(C)C)NC(=O)C(C)(C)NC(=O)[C@H](CC(C)C)NC(C)=O)[C@@H](C)O)C(=O)N[C@@H](CC(C)C)C(=O)N[C@@H](CO)C(=O)N[C@@H](CC(C)C)C(=O)N[C@@H](CCC(N)=O)C(=O)N[C@@H](CCC(=O)O)C(=O)N[C@H](C(=O)N[C@H](C(=O)N[C@@H](CCCCN)C(=O)N[C@@H](CCCCN)C(=O)N[C@@H](CC(C)C)C(=O)N[C@@H](CC(N)=O)C(=O)N[C@@H](CCC(=O)O)C(=O)N[C@@H](CO)C(=O)N[C@@H](Cc1ccc(O)cc1)C(N)=O)C(C)C)C(C)C (Ac-L[Aib]LTY[Aib]MLSLQEVVKKLNESY-NH2)	3.62
CSCC[C@H](NC(=O)[C@H](CCC(=O)O)NC(=O)[C@H](Cc1ccc(O)cc1)NC(=O)[C@@H](NC(=O)[C@H](CC(C)C)NC(=O)[C@H](CC(=O)O)NC(=O)[C@H](CC(C)C)NC(C)=O)[C@@H](C)O)C(=O)N[C@@H](CC(C)C)C(=O)NC(C)(C)C(=O)N[C@@H](CC(C)C)C(=O)N[C@@H](CCC(N)=O)C(=O)N[C@@H](CCC(N)=O)C(=O)NC(C)(C)C(=O)N[C@H](C(=O)N[C@@H](CCCCN)C(=O)N[C@@H](C)C(=O)N[C@@H](CC(C)C)C(=O)N[C@@H](CC(N)=O)C(=O)N[C@@H](CCC(=O)O)C(=O)N[C@@H](CO)C(=O)N[C@@H](Cc1ccc(O)cc1)C(N)=O)C(C)C (Ac-LDLTYEML[Aib]LQQ[Aib]VKALNESY-NH2)	> 50
Ac-LDLTYEMASLQAVVKALNESY-NH2	> 50
CSCC[C@H](NC(=O)[C@H](CCC(=O)O)NC(=O)[C@H](Cc1ccc(O)cc1)NC(=O)[C@@H](NC(=O)[C@H](CC(C)C)NC(=O)[C@H](CC(=O)O)NC(=O)[C@H](CC(C)C)NC(C)=O)[C@@H](C)O)C(=O)N[C@@H](CC(C)C)C(=O)N[C@@H](CO)C(=O)N[C@@H](CC(C)C)C(=O)N[C@@H](CCC(N)=O)C(=O)N[C@@H](CCC(N)=O)C(=O)N[C@H](C(=O)N[C@H](C(=O)N[C@@H](CCCCN)C(=O)N[C@@H](C)C(=O)N[C@@H](CC(C)C)C(=O)N[C@@H](CC(N)=O)C(=O)N[C@@H](CCC(=O)O)C(=O)N[C@@H](CO)C(=O)N[C@@H](Cc1ccc(O)cc1)C(N)=O)C(C)C)C(C)C	> 50
CSCC[C@H](NC(=O)C(C)(C)NC(=O)[C@H](Cc1ccc(O)cc1)NC(=O)[C@H](CCC(=O)O)NC(=O)[C@H](CC(C)C)NC(=O)C(C)(C)NC(=O)[C@H](CC(C)C)NC(C)=O)C(=O)N[C@@H](CCCCN)C(=O)N[C@@H](CO)C(=O)N[C@@H](CC(C)C)C(=O)N[C@@H](CCC(N)=O)C(=O)N[C@@H](CCC(=O)O)C(=O)N[C@H](C(=O)N[C@H](C(=O)N[C@@H](CCCCN)C(=O)N[C@@H](CCCCN)C(=O)N[C@@H](CC(C)C)C(=O)N[C@@H](CC(N)=O)C(=O)N[C@@H](CCC(=O)O)C(=O)N[C@@H](CO)C(=O)N[C@@H](Cc1ccc(O)cc1)C(N)=O)C(C)C)C(C)C (Ac-L[Aib]LEY[Aib]MKSLQEVVKKLNESY-NH2)	24
CSCC[C@H](NC(=O)C(C)(C)NC(=O)[C@H](Cc1ccc(O)cc1)NC(=O)[C@H](CCC(=O)O)NC(=O)[C@H](CC(C)C)NC(=O)C(C)(C)NC(=O)[C@H](CC(C)C)NC(C)=O)C(=O)N[C@@H](CCCCN)C(=O)N[C@@H](CO)C(=O)N[C@@H](CC(C)C)C(=O)N[C@@H](CCC(N)=O)C(=O)N[C@@H](CCC(N)=O)C(=O)N[C@H](C(=O)N[C@H](C(=O)N[C@@H](CCCCN)C(=O)N[C@@H](C)C(=O)N[C@@H](CC(C)C)C(=O)N[C@@H](CC(N)=O)C(=O)N[C@@H](CCC(=O)O)C(=O)N[C@@H](CO)C(=O)N[C@@H](Cc1ccc(O)cc1)C(N)=O)C(C)C)C(C)C	14.8
CSCC[C@H](NC(=O)[C@H](CCC(=O)O)NC(=O)C(C)(C)NC(=O)[C@@H](NC(=O)[C@H](CC(C)C)NC(=O)[C@H](CC(=O)O)NC(=O)[C@H](CC(C)C)NC(C)=O)[C@@H](C)O)C(=O)N[C@@H](CC(C)C)C(=O)NC(C)(C)C(=O)N[C@@H](CC(C)C)C(=O)N[C@@H](CCC(N)=O)C(=O)N[C@@H](CCC(N)=O)C(=O)N[C@H](C(=O)N[C@H](C(=O)N[C@@H](CCCCN)C(=O)N[C@@H](C)C(=O)N[C@@H](CC(C)C)C(=O)N[C@@H](CC(N)=O)C(=O)N[C@@H](CCC(=O)O)C(=O)N[C@@H](CO)C(=O)N[C@@H](Cc1ccc(O)cc1)C(N)=O)C(C)C)C(C)C	> 50
CSCC[C@H](NC(=O)[C@H](CCC(=O)O)NC(=O)C(C)(C)NC(=O)[C@@H](NC(=O)[C@H](CC(C)C)NC(=O)[C@H](CC(=O)O)NC(=O)C(C)(C)NC(C)=O)[C@@H](C)O)C(=O)N[C@@H](CC(C)C)C(=O)N[C@@H](CO)C(=O)N[C@@H](CC(C)C)C(=O)N[C@@H](CCC(N)=O)C(=O)N[C@@H](CCC(N)=O)C(=O)N[C@H](C(=O)N[C@H](C(=O)N[C@@H](CCCCN)C(=O)N[C@@H](C)C(=O)N[C@@H](CC(C)C)C(=O)N[C@@H](CC(N)=O)C(=O)N[C@@H](CCC(=O)O)C(=O)N[C@@H](CO)C(=O)N[C@@H](Cc1ccc(O)cc1)C(N)=O)C(C)C)C(C)C	> 50
CSCC[C@H](NC(=O)[C@H](CCC(=O)O)NC(=O)[C@H](Cc1ccc(O)cc1)NC(=O)[C@@H](NC(=O)[C@H](CC(C)C)NC(=O)[C@H](CC(=O)O)NC(=O)[C@H](CC(C)C)NC(C)=O)[C@@H](C)O)C(=O)N[C@@H](CC(C)C)C(=O)N[C@@H](CO)C(=O)N[C@@H](CC(C)C)C(=O)N[C@@H](CCC(N)=O)C(=O)NC(C)(C)C(=O)N[C@H](C(=O)N[C@H](C(=O)N[C@@H](CCCCN)C(=O)NC(C)(C)C(=O)N[C@@H](CC(C)C)C(=O)N[C@@H](CC(N)=O)C(=O)N[C@@H](CCC(=O)O)C(=O)N[C@@H](CO)C(=O)N[C@@H](Cc1ccc(O)cc1)C(N)=O)C(C)C)C(C)C (Ac-LDLTYEMLSLQ[Aib]VVK[Aib]LNESY-NH2)	6.66
CCCCCCCC(=O)NCCCC[C@H](NC(=O)COCCOCCNC(=O)[C@H](Cc1ccc(O)cc1)NC(=O)[C@H](CO)NC(=O)[C@H](CCC(=O)O)NC(=O)[C@H](CC(N)=O)NC(=O)[C@H](CC(C)C)NC(=O)[C@H](CCCCN)NC(=O)[C@H](CCCCN)NC(=O)[C@@H](NC(=O)[C@@H](NC(=O)[C@H](CCC(=O)O)NC(=O)[C@H](CCC(N)=O)NC(=O)[C@H](CC(C)C)NC(=O)[C@H](CO)NC(=O)[C@H](CC(C)C)NC(=O)[C@H](CCSC)NC(=O)C(C)(C)NC(=O)[C@H](Cc1ccc(O)cc1)NC(=O)[C@@H](NC(=O)[C@H](CC(C)C)NC(=O)C(C)(C)NC(=O)[C@H](CC(C)C)NC(C)=O)[C@@H](C)O)C(C)C)C(C)C)C(N)=O (Ac-L[Aib]LTY[Aib]MLSLQEVVKKLNESY[AEEA]K(Octanoyl)-NH2)	0.864
CSCC[C@H](NC(=O)[C@H](CCC(=O)O)NC(=O)[C@H](Cc1ccc(O)cc1)NC(=O)[C@@H](NC(=O)[C@H](CC(C)C)NC(=O)[C@H](CC(=O)O)NC(=O)[C@H](CC(C)C)NC(C)=O)[C@@H](C)O)C(=O)N[C@@H](CC(C)C)C(=O)N[C@@H](CO)C(=O)N[C@@H](CC(C)C)C(=O)N[C@@H](CCC(N)=O)C(=O)N[C@@H](CCC(N)=O)C(=O)N[C@H](C(=O)N[C@H](C(=O)N[C@@H](CCCCN)C(=O)N[C@@H](C)C(=O)N[C@@H](CC(C)C)C(=O)N[C@@H](CC(N)=O)C(=O)N[C@@H](CCC(=O)O)C(=O)N[C@@H](C)C(=O)N[C@@H](Cc1ccc(O)cc1)C(N)=O)C(C)C)C(C)C	6.67
CSCC[C@H](NC(=O)[C@H](CCC(=O)O)NC(=O)[C@H](Cc1ccc(O)cc1)NC(=O)[C@@H](NC(=O)[C@H](CC(C)C)NC(=O)[C@H](CC(=O)O)NC(=O)[C@H](CC(C)C)NC(C)=O)[C@@H](C)O)C(=O)N[C@@H](CC(C)C)C(=O)N[C@@H](CO)C(=O)N[C@@H](CC(C)C)C(=O)NC(C)(C)C(=O)N[C@@H](CCC(N)=O)C(=O)N[C@H](C(=O)N[C@H](C(=O)NC(C)(C)C(=O)N[C@@H](C)C(=O)N[C@@H](CC(C)C)C(=O)N[C@@H](CC(N)=O)C(=O)N[C@@H](CCC(=O)O)C(=O)N[C@@H](CO)C(=O)N[C@@H](Cc1ccc(O)cc1)C(N)=O)C(C)C)C(C)C (Ac-LDLTYEMLSL[Aib]QVV[Aib]ALNESY-NH2)	2.55
CSCC[C@H](NC(=O)C(C)(C)NC(=O)[C@H](Cc1ccc(O)cc1)NC(=O)[C@@H](NC(=O)[C@H](CC(C)C)NC(=O)C(C)(C)NC(=O)[C@H](CC(C)C)NC(C)=O)[C@@H](C)O)C(=O)N[C@@H](CC(C)C)C(=O)N[C@@H](CO)C(=O)N[C@@H](CC(C)C)C(=O)N[C@@H](CCC(N)=O)C(=O)N[C@@H](CCC(N)=O)C(=O)N[C@H](C(=O)N[C@H](C(=O)N[C@@H](CCCCN)C(=O)N[C@@H](C)C(=O)N[C@@H](CC(C)C)C(=O)N[C@@H](CC(N)=O)C(=O)N[C@@H](CCC(=O)O)C(=O)N[C@@H](CO)C(=O)N[C@@H](Cc1ccc(O)cc1)C(N)=O)C(C)C)C(C)C	2.33
